Target: Albumin (Homo sapiens, UniProt P02768)
Assay: Binding constant against human serum albumin (HSA)

Sequence of Albumin (P02768 whole entry): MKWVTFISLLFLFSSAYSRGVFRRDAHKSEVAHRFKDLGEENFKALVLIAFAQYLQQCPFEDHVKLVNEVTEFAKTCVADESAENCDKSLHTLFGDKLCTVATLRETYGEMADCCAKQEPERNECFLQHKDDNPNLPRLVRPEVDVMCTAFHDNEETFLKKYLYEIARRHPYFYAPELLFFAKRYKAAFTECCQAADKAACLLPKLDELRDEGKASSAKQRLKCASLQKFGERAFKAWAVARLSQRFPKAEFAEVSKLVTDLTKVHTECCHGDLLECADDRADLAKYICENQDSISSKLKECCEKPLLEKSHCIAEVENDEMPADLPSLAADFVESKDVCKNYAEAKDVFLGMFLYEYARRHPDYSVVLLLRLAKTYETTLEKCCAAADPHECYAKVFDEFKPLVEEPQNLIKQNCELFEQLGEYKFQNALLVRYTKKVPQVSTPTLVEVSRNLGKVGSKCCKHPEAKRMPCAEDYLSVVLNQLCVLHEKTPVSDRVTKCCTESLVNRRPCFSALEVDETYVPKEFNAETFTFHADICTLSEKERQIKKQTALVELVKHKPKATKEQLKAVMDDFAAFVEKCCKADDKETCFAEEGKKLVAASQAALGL

Compound | Log K'
CNS(=O)(=O)Cc1ccc2[nH]cc(CCN(C)C)c2c1 | 0.05
CCCC(=O)Nc1ccc(OCC(O)CNC(C)C)c(C(C)=O)c1 (centres undefined) [ACEBUTOLOL] | 0.21
CC(=O)Nc1ccc(O)cc1 [ACETAMINOPHEN] | 0.81
Cc1ccc(/C(=C\CN2CCCC2)c2cccc(/C=C/C(=O)O)n2)cc1 [ACRIVASTINE] | 0.02
C=CCc1ccccc1OCC(O)CNC(C)C (centres undefined) [ALPRENOLOL] | 0.04
CC1(C)S[C@@H]2[C@H](NC(=O)[C@H](N)c3ccc(O)cc3)C(=O)N2[C@H]1C(=O)O [AMOXICILLIN] | 1.21
Cc1cc(=O)n(-c2ccccc2)n1C [ANTIPYRINE] | 0.69
CC(=O)Oc1ccccc1C(=O)O [ASPIRIN] | 1.39
CCCCNc1cc(C(=O)O)cc(S(N)(=O)=O)c1Oc1ccccc1 [BUMETANIDE] | 0.03
CC(NC(C)(C)C)C(=O)c1cccc(Cl)c1 (centres undefined) [BUPROPION] | 0.05
Cn1c(=O)c2c(ncn2C)n(C)c1=O [CAFFEINE] | 0.92
CC[C@@]1(O)C(=O)OCc2c1cc1n(c2=O)Cc2cc3ccccc3nc2-1 [CAMPTOTHECIN] | 0.08
C[C@H](CS)C(=O)N1CCC[C@H]1C(=O)O [CAPTOPRIL] | 2.69
CO/N=C(\C(=O)N[C@@H]1C(=O)N2C(C(=O)OC(C)OC(C)=O)=C(COC(N)=O)CS[C@H]12)c1ccco1 (some centres undefined) [CEFUROXIME AXETIL] | 0.56
CO/N=C(\C(=O)N[C@@H]1C(=O)N2C(C(=O)O)=C(COC(N)=O)CS[C@H]12)c1ccco1 [CEFUROXIME] | 1.33
O=C(N[C@H](CO)[C@H](O)c1ccc([N+](=O)[O-])cc1)C(Cl)Cl [CHLORAMPHENICOL] | 0.46
CCCNC(=O)NS(=O)(=O)c1ccc(Cl)cc1 [CHLORPROPAMIDE] | 0.44
CN/C(=N/CCSCc1nc[nH]c1C)NC#N [CIMETIDINE] | 0.44
CCOC(=O)C(C)(C)Oc1ccc(Cl)cc1 [CLOFIBRATE] | 0.27
Clc1cccc(Cl)c1N=C1NCCN1 [CLONIDINE] | 0.13
Clc1ccccc1C(c1ccccc1)(c1ccccc1)n1ccnc1 [CLOTRIMAZOLE] | 1.34
O=C(O)c1cc(=O)c2c(OCC(O)COc3cccc4oc(C(=O)O)cc(=O)c34)cccc2o1 [CROMOLYN] | 1.07
CN(C)c1cccc2c(S(=O)(=O)NCC(=O)O)cccc12 [DANSYLGLYCINE] | -0.26
CNCCCN1c2ccccc2CCc2ccccc21 [DESIPRAMINE] | 0.61
C[C@H]1O[C@@H](O[C@H]2[C@@H](O)C[C@H](O[C@H]3[C@@H](O)C[C@H](O[C@H]4CC[C@@]5(C)[C@H](CC[C@@H]6[C@@H]5CC[C@]5(C)[C@@H](C7=CC(=O)OC7)CC[C@]65O)C4)O[C@@H]3C)O[C@@H]2C)C[C@H](O)[C@@H]1O [DIGITOXIN] | 0.13

Compound | Log K'
C[C@H]1c2cccc(O)c2C(=O)C2=C(O)[C@]3(O)C(=O)C(C(N)=O)=C(O)[C@@H](N(C)C)[C@@H]3[C@@H](O)[C@@H]21.O [DOXYCYCLINE] | 0.01
O=C(CCCN1CC=C(n2c(=O)[nH]c3ccccc32)CC1)c1ccc(F)cc1 [DROPERIDOL] | 0.43
O=c1c2ccccc2[se]n1-c1ccccc1 [EBSELEN] | 1.04
C[C@]12CC[C@@H]3c4ccc(O)cc4CC[C@H]3[C@@H]1CC[C@@H]2O [ESTRADIOL] | 0.68
Nc1nc(=O)[nH]cc1F [FLUCYTOSINE] | 1.11
CC(=O)O[C@H]1C[C@@]2(C)[C@@H](C[C@@H](O)[C@H]3[C@@]4(C)CC[C@@H](O)[C@@H](C)[C@@H]4CC[C@@]32C)/C1=C(\CCC=C(C)C)C(=O)O [FUSIDIC ACID] | 0.33
COc1ccc(Cl)cc1C(=O)NCCc1ccc(S(=O)(=O)NC(=O)NC2CCCCC2)cc1 [GLYBURIDE] | 0.68
NS(=O)(=O)c1cc2c(cc1Cl)NCNS2(=O)=O [HYDROCHLOROTHIAZIDE] | 0.42
C[C@]12CCC(=O)C=C1CC[C@@H]1[C@@H]2[C@@H](O)C[C@@]2(C)[C@H]1CC[C@]2(O)C(=O)CO [HYDROCORTISONE] | 0.4
CN(C)CCCN1c2ccccc2CCc2ccccc21 [IMIPRAMINE] | 0.75
CCC(C)n1ncn(-c2ccc(N3CCN(c4ccc(OC[C@H]5CO[C@](Cn6cncn6)(c6ccc(Cl)cc6Cl)O5)cc4)CC3)cc2)c1=O (some centres undefined) [ITRACONAZOLE] | 1.04
CC(=O)N1CCN(c2ccc(OC[C@H]3CO[C@](Cn4ccnc4)(c4ccc(Cl)cc4Cl)O3)cc2)CC1 [KETOCONAZOLE] | 0.84
CC(CCc1ccccc1)NCC(O)c1ccc(O)c(C(N)=O)c1 (centres undefined) [LABETALOL] | 0.14
Nc1nnc(-c2cccc(Cl)c2Cl)c(N)n1 [LAMOTRIGINE] | 0.13
C[C@H]1COc2c(N3CCN(C)CC3)c(F)cc3c(=O)c(C(=O)O)cn1c23.C[C@H]1COc2c(N3CCN(C)CC3)c(F)cc3c(=O)c(C(=O)O)cn1c23.O [LEVOFLOXACIN] | 0.14
CN(Cc1cnc2nc(N)nc(N)c2n1)c1ccc(C(=O)N[C@@H](CCC(=O)O)C(=O)O)cc1 [METHOTREXATE] | 0.77
C[C@H]1C[C@@H]2[C@H]([C@@H](O)C[C@@]3(C)[C@H]2CC[C@]3(O)C(=O)CO)[C@@]2(C)C=CC(=O)C=C12 [METHYLPREDNISOLONE] | 0.22
COCCc1ccc(OCC(O)CNC(C)C)cc1 (centres undefined) [METOPROLOL] | 0.29
CN(C)c1ccc(O)c2c1C[C@H]1C[C@H]3[C@H](N(C)C)C(O)=C(C(N)=O)C(=O)[C@@]3(O)C(O)=C1C2=O [MINOCYCLINE] | 0.21
CC(C)(C)NCC(O)COc1cccc2c1CC(O)C(O)C2 (centres undefined) [NADOLOL] | 0.4
CCn1cc(C(=O)O)c(=O)c2cc(F)c(N3CCNCC3)cc21 [NORFLOXACIN] | 0.14
CO[C@@H]1[C@@H](OC(N)=O)[C@@H](O)[C@H](Oc2ccc3c(O)c(NC(=O)c4ccc(O)c(CC=C(C)C)c4)c(=O)oc3c2C)OC1(C)C [NOVOBIOCIN] | 0.35
Cc1nccn1CC1CCc2c(c3ccccc3n2C)C1=O (centres undefined) [ONDANSETRON] | 0.37
C=CCOc1ccccc1OCC(O)CNC(C)C (centres undefined) [OXPRENOLOL] | 0.15
CCCCC1C(=O)N(c2ccccc2)N(c2ccc(O)cc2)C1=O (centres undefined) [OXYPHENBUTAZONE ANHYDROUS] | 0.02

Compound | Log K'
CC1(C)S[C@@H]2[C@H](NC(=O)COc3ccccc3)C(=O)N2[C@H]1C(=O)O [PENICILLIN V] | 0.69
CC(C)NCC(O)COc1cccc2[nH]ccc12 (centres undefined) [PINDOLOL] | 0.13
COc1cc2nc(N3CCN(C(=O)c4ccco4)CC3)nc(N)c2cc1OC [PRAZOSIN] | 0.06
C[C@]12C=CC(=O)C=C1CC[C@@H]1[C@@H]2[C@@H](O)C[C@@]2(C)[C@H]1CC[C@]2(O)C(=O)CO [PREDNISOLONE] | 0.4
CCN(CC)CCOC(=O)c1ccc(N)cc1 [PROCAINE] | 0.19
CC(=O)[C@H]1CC[C@H]2[C@@H]3CCC4=CC(=O)CC[C@]4(C)[C@H]3CC[C@]12C [PROGESTERONE] | 0.59
CN(C)CCCN1c2ccccc2Sc2ccccc21 [PROMAZINE] | 0.92
CC(C)NCC(O)COc1cccc2ccccc12 (centres undefined) [PROPRANOLOL] | 0.28
C=C[C@H]1C[N@@]2CC[C@H]1C[C@@H]2[C@@H](O)c1ccnc2ccc(OC)cc12 [QUINIDINE] | 0.44
C=C[C@H]1C[N@@]2CC[C@H]1C[C@H]2[C@H](O)c1ccnc2ccc(OC)cc12 [QUININE] | 0.49
CNC(=C[N+](=O)[O-])NCCSCc1ccc(CN(C)C)o1 [RANITIDINE] | 0.1
CN(C)[C@@H]1C(O)=C(C(N)=O)C(=O)[C@@]2(O)C(O)=C3C(=O)c4c(O)cccc4C[C@H]3C[C@@H]12 [SANCYCLINE] | 0.21
CC(C)NCC(O)c1ccc(NS(C)(=O)=O)cc1 (centres undefined) [SOTALOL] | 0.44
Nc1ccc(S(=O)(=O)Nc2ccnn2-c2ccccc2)cc1 [SULFAPHENAZOLE] | 0.21
COc1cc2nc(N3CCN(C(=O)C4CCCO4)CC3)nc(N)c2cc1OC (centres undefined) [TERAZOSIN] | 0.16
CN(C/C=C/C#CC(C)(C)C)Cc1cccc2ccccc12 [TERBINAFINE] | 1.17
C[C@]12CC[C@H]3[C@@H](CCC4=CC(=O)CC[C@@]43C)[C@@H]1CC[C@@H]2O [TESTOSTERONE] | 0.74
CCCCNc1ccc(C(=O)OCCN(C)C)cc1 [TETRACAINE] | 0.32
CN(C)[C@@H]1C(O)=C(C(N)=O)C(=O)[C@@]2(O)C(O)=C3C(=O)c4c(O)cccc4[C@@](C)(O)[C@H]3C[C@@H]12 [TETRACYCLINE] | 0.08
CC(C)(C)NC[C@H](O)COc1nsnc1N1CCOCC1 [TIMOLOL] | 0.33
Cc1ccc(S(=O)(=O)NC(=O)NN2CCCCCC2)cc1 [TOLAZAMIDE] | 0.42
CN(C)CCCN1c2ccccc2Sc2ccc(C(F)(F)F)cc21 [TRIFLUPROMAZINE] | 1.05
COc1cc(Cc2cnc(N)nc2N)cc(OC)c1OC [TRIMETHOPRIM] | 0.26
N[C@@H](Cc1c[nH]c2ccccc12)C(=O)O [TRYPTOPHAN] | 0.78
